Results: ChEMBL document CHEMBL3804773, “Straightforward synthesis of a novel ring-fused pyrazole-lactam and in vitro cytotoxic activity on cancer cell lines” (Eur J Med Chem, 2016)

How the values were obtained:
U-87MG ATCC [1] = test: (§1) Cytotoxicity against human U87MG cells assessed as reduction in cell viability after 48 hrs by Z2 coulter counter method; type: functional, cell-based; conditions: TDE = time-dependent effect
[2] = as §1; type: functional, cell-based, U-87MG ATCC; conditions: U-87 MG
U-87MG ATCC [3] = test: (§2) Cytotoxicity against human U87MG cells assessed as reduction in cell viability after 24 hrs by Z2 coulter counter method; type: functional, cell-based; conditions: TDE = time-dependent effect
[4] = as §2; type: functional, cell-based, U-87MG ATCC; conditions: U-87 MG
U-87MG ATCC [5] = test: Cytotoxicity against human U87MG cells assessed as reduction in cell viability by Z2 coulter counter method; type: functional, cell-based; conditions: TDE = time-dependent effect
U-87MG ATCC [6] = test: (§3) Cytotoxicity against human U87MG cells assessed as reduction in cell viability after 72 hrs by Z2 coulter counter method; type: functional, cell-based; conditions: TDE = time-dependent effect
[7] = as §3; type: functional, cell-based, U-87MG ATCC; conditions: U-87 MG
HeLa [8] = test: Cytotoxicity against human HeLa cells assessed as reduction in cell viability after 72 hrs by Z2 coulter counter method; type: functional, cell-based
MCF7 [9] = test: Cytotoxicity against human MCF7 cells assessed as reduction in cell viability after 72 hrs by Z2 coulter counter method; type: functional, cell-based; conditions: MCF7, 72 h
MCF7 [10] = test: Cytotoxicity against human MCF7 cells assessed as reduction in cell viability after 48 hrs by Z2 coulter counter method; type: functional, cell-based; conditions: MCF7, 48 h
[11] = Cytotoxicity against human HN13 cells assessed as reduction in cell viability after 72 hrs by Z2 coulter counter method; type: functional, cell-based; conditions: WSU-HN13, 72 h
HeLa [12] = test: Cytotoxicity against human HeLa cells assessed as reduction in cell viability after 24 hrs by Z2 coulter counter method; type: functional, cell-based
MCF7 [13] = test: Cytotoxicity against human MCF7 cells assessed as reduction in cell viability after 24 hrs by Z2 coulter counter method; type: functional, cell-based; conditions: MCF7, 24 h
MDA-MB-231 [14] = test: Cytotoxicity against human MDA-MB-231 cells assessed as reduction in cell viability after 48 hrs by Z2 coulter counter method; type: functional, cell-based; conditions: MDA-MB-231, 48 h
MDA-MB-231 [15] = test: Cytotoxicity against human MDA-MB-231 cells assessed as reduction in cell viability after 24 hrs by Z2 coulter counter method; type: functional, cell-based; conditions: MDA-MB-231, 24 h
HeLa [16] = test: Cytotoxicity against human HeLa cells assessed as reduction in cell viability after 48 hrs by Z2 coulter counter method; type: functional, cell-based
[17] = Cytotoxicity against human HN13 cells assessed as reduction in cell viability after 24 hrs by Z2 coulter counter method; type: functional, cell-based; conditions: WSU-HN13, 24 h
MDA-MB-231 [18] = test: Cytotoxicity against human MDA-MB-231 cells assessed as reduction in cell viability after 72 hrs by Z2 coulter counter method; type: functional, cell-based; conditions: MDA-MB-231, 72 h
[19] = Cytotoxicity against human HN13 cells assessed as reduction in cell viability after 48 hrs by Z2 coulter counter method; type: functional, cell-based; conditions: WSU-HN13, 48 h

Row | Structure (SMILES) | Activity (U-87MG ATCC [1]) | IC50 [2] | Activity (U-87MG ATCC [3]) | IC50 [4] | Activity (U-87MG ATCC [5]) | Activity (U-87MG ATCC [6]) | IC50 [7] | IC50 (HeLa [8]) | IC50 (MCF7 [9]) | IC50 (MCF7 [10]) | IC50 [11] | IC50 (HeLa [12]) | IC50 (MCF7 [13]) | IC50 (MDA-MB-231 [14]) | IC50 (MDA-MB-231 [15]) | IC50 (HeLa [16]) | IC50 [17] | IC50 (MDA-MB-231 [18]) | IC50 [19]
1 | Cn1c(=O)n(-c2ccc(C(C)(C)C#N)cc2)c2c3cc(-c4cnc5ccccc5c4)ccc3ncc21 [DACTOLISIB] | tde | 0.6 µM | tde | 825 µM | tde | tde | 0.16 µM | – | – | – | – | – | – | – | – | – | – | – | –
2 | O=c1[nH]cc(F)c(=O)[nH]1 [FLUOROURACIL] | tde | 220 µM | tde | – | tde | tde | 18.2 µM | – | – | – | – | – | – | – | – | – | – | – | –
3 | O=C(Nc1ccc(Nc2ccc(OC3CCNCC3)cc2)cc1)c1cccc(-n2nc(C(=O)Nc3ccc(Nc4ccc(OC5CCNCC5)cc4)cc3)c3c2C(=O)NCC3)c1 | – | 44.4 µM | – | 60 µM | – | – | 33.5 µM | 16 µM | 10.6 µM | 32.9 µM | 26.1 µM | 17.6 µM | 78.3 µM | 42.6 µM | 55 µM | 17.6 µM | 30.6 µM | 28.9 µM | 27 µM
